Patent publication US12077503B2, “Substituted cyclic amides and their use as herbicides” (FMC CORPORATION, priority 2015, dated 2024)

Experiments:
Format in all cases: in vivo
[1] = system: velvetleaf (Abutilon theophrasti); assay: Test G Post-Emergence Protocol; settings: Abutilon theophrasti, post-emergence, 312 h; for pest or weed control at 15.625 g/ha: 15.625 g ai/ha, evaluated after 13 days (100=total damage to plant; 0=no damage to plant), read-out: Velvetleaf damage rating; for pest or weed control at 62.5 g/ha: 62.5 g ai/ha, read-out: Velvetleaf damage rating (100=total damage to plant; 0=no damage to plant); for pest or weed control at 62.5 g/ha / pest or weed control at 250 g/ha: evaluated after 13 days; for pest or weed control at 250 g/ha: 250 g ai/ha, read-out: damage to plant, Velvetleaf (100=total damage to plant; 0=no damage to plant)
Procedure, shortened: (§1)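 Eight days post-sowing, plants received a spray of test compound (acetone/water 50:50, 0.5% Tween 20) at 15.625, 62.5 or 250 g/ha. Glasshouse regime thereafter: 24/16 °C, 14 h light, 65% humidity. Assessment after 13 days on a 0–100 damage scale.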

[2] = system: giant foxtail (Setaria faberi); assay: Test G Post-Emergence Protocol; settings: Setaria faberi, post-emergence, 312 h; for pest or weed control at 15.625 g/ha: 15.625 g ai/ha, evaluated after 13 days (100=total damage to plant; 0=no damage to plant), read-out: Foxtail, Giant damage rating; for pest or weed control at 62.5 g/ha: 62.5 g ai/ha, read-out: Foxtail, Giant damage rating (100=total damage to plant; 0=no damage to plant); for pest or weed control at 62.5 g/ha / pest or weed control at 250 g/ha: evaluated after 13 days; for pest or weed control at 250 g/ha: 250 g ai/ha, read-out: damage to plant, Foxtail, Giant (100=total damage to plant; 0=no damage to plant)
Procedure, shortened: as §1

[3] = system: ivy-leaved morning glory (Ipomoea hederacea); assay: Test G Post-Emergence Protocol; settings: Ipomoea, post-emergence, 312 h; for pest or weed control at 15.625 g/ha: 15.625 g ai/ha, evaluated after 13 days (100=total damage to plant; 0=no damage to plant), read-out: Morningglory, Ivy-leaved damage rating; for pest or weed control at 62.5 g/ha: 62.5 g ai/ha, read-out: Morningglory, Ivy-leaved damage rating (100=total damage to plant; 0=no damage to plant); for pest or weed control at 62.5 g/ha / pest or weed control at 250 g/ha: evaluated after 13 days; for pest or weed control at 250 g/ha: 250 g ai/ha, read-out: damage to plant, Morningglory, Ivy-leaved (100=total damage to plant; 0=no damage to plant)
Procedure, shortened: as §1

corn (Zea mays) [4] = assay: Test G Post-Emergence Protocol; settings: Zea mays, post-emergence, 312 h; for plant injury at 15.625 g/ha: 15.625 g ai/ha, evaluated after 13 days (100=total damage to plant; 0=no damage to plant), read-out: Corn damage rating; for plant injury at 62.5 g/ha: 62.5 g ai/ha, read-out: Corn damage rating (100=total damage to plant; 0=no damage to plant); for plant injury at 62.5 g/ha / plant injury at 250 g/ha: evaluated after 13 days; for plant injury at 250 g/ha: 250 g ai/ha, read-out: damage to plant, Corn (100=total damage to plant; 0=no damage to plant)
Procedure, shortened: as §1

[5] = system: barnyardgrass (Echinochloa crus-galli); assay: Test G Post-Emergence Protocol; settings: Echinochloa crus-galli, post-emergence, 312 h; for pest or weed control at 15.625 g/ha: 15.625 g ai/ha, evaluated after 13 days (100=total damage to plant; 0=no damage to plant), read-out: Barnyardgrass damage rating; for pest or weed control at 62.5 g/ha: 62.5 g ai/ha, read-out: Barnyardgrass damage rating (100=total damage to plant; 0=no damage to plant); for pest or weed control at 62.5 g/ha / pest or weed control at 250 g/ha: evaluated after 13 days; for pest or weed control at 250 g/ha: 250 g ai/ha, read-out: damage to plant, Barnyardgrass (100=total damage to plant; 0=no damage to plant)
Procedure, shortened: as §1

[6] = system: redroot pigweed (Amaranthus retroflexus); assay: Test G Post-Emergence Protocol; settings: Amaranthus retroflexus, post-emergence, 312 h; for pest or weed control at 15.625 g/ha: 15.625 g ai/ha, evaluated after 13 days (100=total damage to plant; 0=no damage to plant), read-out: Pigweed, Redroot damage rating; for pest or weed control at 62.5 g/ha: 62.5 g ai/ha, read-out: Pigweed, Redroot damage rating (100=total damage to plant; 0=no damage to plant); for pest or weed control at 62.5 g/ha / pest or weed control at 250 g/ha: evaluated after 13 days; for pest or weed control at 250 g/ha: 250 g ai/ha, read-out: damage to plant, Pigweed, Redroot (100=total damage to plant; 0=no damage to plant)
Procedure, shortened: as §1

[7] = system: velvetleaf (Abutilon theophrasti); assay: Test G Pre-Emergence Protocol; settings: Abutilon theophrasti, pre-emergence, 312 h, evaluated after 13 days; for pest or weed control at 15.625 g/ha: 15.625 g ai/ha; for pest or weed control at 15.625 g/ha / pest or weed control at 250 g/ha: read-out: Velvetleaf damage rating (100=total damage to plant; 0=no damage to plant); for pest or weed control at 62.5 g/ha: 62.5 g ai/ha, 100=total damage to plant, 0=no damage to plant, read-out: plant damage rating, Velvetleaf; for pest or weed control at 250 g/ha: 250 g ai/ha
Procedure, shortened: (§2)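 Scores are visual damage ratings from 0 (no damage) to 100 (total plant kill), taken 13 days after treatment. Compound was sprayed one day post-sowing at 15.625, 62.5 or 250 g/ha in 50:50 acetone/water with 0.5% Tween 20.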

[8] = system: giant foxtail (Setaria faberi); assay: Test G Pre-Emergence Protocol; settings: Setaria faberi, pre-emergence, 312 h, evaluated after 13 days; for pest or weed control at 15.625 g/ha: 15.625 g ai/ha; for pest or weed control at 15.625 g/ha / pest or weed control at 250 g/ha: read-out: Foxtail, Giant damage rating (100=total damage to plant; 0=no damage to plant); for pest or weed control at 62.5 g/ha: 62.5 g ai/ha, 100=total damage to plant, 0=no damage to plant, read-out: plant damage rating, Foxtail, Giant; for pest or weed control at 250 g/ha: 250 g ai/ha
Procedure, shortened: as §2

[9] = system: ivy-leaved morning glory (Ipomoea hederacea); assay: Test G Pre-Emergence Protocol; settings: Ipomoea, pre-emergence, 312 h, evaluated after 13 days; for pest or weed control at 62.5 g/ha: 62.5 g ai/ha, 100=total damage to plant, 0=no damage to plant, read-out: plant damage rating, Morningglory, Ivy-leaved; for pest or weed control at 250 g/ha: 250 g ai/ha, read-out: Morningglory, Ivy-leaved damage rating (100=total damage to plant; 0=no damage to plant)
Procedure, shortened: as §2

corn (Zea mays) [10] = assay: Test G Pre-Emergence Protocol; settings: Zea mays, pre-emergence, 312 h, evaluated after 13 days; for plant injury at 15.625 g/ha: 15.625 g ai/ha; for plant injury at 15.625 g/ha / plant injury at 250 g/ha: read-out: Corn damage rating (100=total damage to plant; 0=no damage to plant); for plant injury at 62.5 g/ha: 62.5 g ai/ha, 100=total damage to plant, 0=no damage to plant, read-out: plant damage rating, Corn; for plant injury at 250 g/ha: 250 g ai/ha
Procedure, shortened: as §2

[11] = system: barnyardgrass (Echinochloa crus-galli); assay: Test G Pre-Emergence Protocol; settings: Echinochloa crus-galli, pre-emergence, 312 h, evaluated after 13 days; for pest or weed control at 15.625 g/ha: 15.625 g ai/ha, read-out: Barnyard grass damage rating (100=total damage to plant; 0=no damage to plant); for pest or weed control at 62.5 g/ha: 62.5 g ai/ha, 100=total damage to plant, 0=no damage to plant, read-out: plant damage rating, Barnyardgrass; for pest or weed control at 250 g/ha: 250 g ai/ha, read-out: Barnyardgrass damage rating (100=total damage to plant; 0=no damage to plant)
Procedure, shortened: as §2

[12] = system: redroot pigweed (Amaranthus retroflexus); assay: Test G Pre-Emergence Protocol; settings: Amaranthus retroflexus, pre-emergence, 312 h, evaluated after 13 days; for pest or weed control at 15.625 g/ha: 15.625 g ai/ha; for pest or weed control at 15.625 g/ha / pest or weed control at 250 g/ha: read-out: Pigweed, Redroot damage rating (100=total damage to plant; 0=no damage to plant); for pest or weed control at 62.5 g/ha: 62.5 g ai/ha, 100=total damage to plant, 0=no damage to plant, read-out: plant damage rating, Pigweed, Redroot; for pest or weed control at 250 g/ha: 250 g ai/ha
Procedure, shortened: as §2

Work on `CN1C[C@@H](c2ccc(C(F)(F)F)cc2)[C@H](C(=O)Nc2cccc(C(F)(F)F)c2[N+](=O)[O-])C1=O` (racemic) [Compound 1594] yielded a pest or weed control at 15.625 g/ha [1] of 0%, a pest or weed control at 62.5 g/ha [1] of 0% and a pest or weed control at 250 g/ha [1] of 0%. For the same molecule, the pest or weed control at 15.625 g/ha [2] was 0%, the pest or weed control at 62.5 g/ha [2] was 20% and the pest or weed control at 250 g/ha [2] was 20%. For the same molecule, the pest or weed control at 15.625 g/ha [3] was 0%, the pest or weed control at 62.5 g/ha [3] was 0% and the pest or weed control at 250 g/ha [3] was 0%. It also gave a plant injury at 15.625 g/ha (corn (Zea mays) [4]) of 0%, a plant injury at 62.5 g/ha (corn (Zea mays) [4]) of 0% and a plant injury at 250 g/ha (corn (Zea mays) [4]) of 0%. It also gave a pest or weed control at 15.625 g/ha [5] of 0%, a pest or weed control at 62.5 g/ha [5] of 20% and a pest or weed control at 250 g/ha [5] of 20%. The pest or weed control at 15.625 g/ha [6] was 0%, the pest or weed control at 62.5 g/ha [6] was 0% and the pest or weed control at 250 g/ha [6] was 0%. The pest or weed control at 15.625 g/ha [7] was 0%, the pest or weed control at 62.5 g/ha [7] was 0% and the pest or weed control at 250 g/ha [7] was 0%. For the same molecule, the pest or weed control at 15.625 g/ha [8] was 0%, the pest or weed control at 62.5 g/ha [8] was 40% and the pest or weed control at 250 g/ha [8] was 30%. It also gave a pest or weed control at 15.625 g/ha ([9]; 15.625 g ai/ha, read-out: Morning-glory, Ivy-leaved damage rating (100=total damage to plant; 0=no damage to plant)) of 0%, a pest or weed control at 62.5 g/ha [9] of 0% and a pest or weed control at 250 g/ha [9] of 0%. It also gave a plant injury at 15.625 g/ha (corn (Zea mays) [10]) of 0%, a plant injury at 62.5 g/ha (corn (Zea mays) [10]) of 10% and a plant injury at 250 g/ha (corn (Zea mays) [10]) of 10%. For the same molecule, the pest or weed control at 15.625 g/ha [11] was 0%, the pest or weed control at 62.5 g/ha [11] was 20% and the pest or weed control at 250 g/ha [11] was 20%. It also gave a pest or weed control at 15.625 g/ha [12] of 0%, a pest or weed control at 62.5 g/ha [12] of 0% and a pest or weed control at 250 g/ha [12] of 0%.
For `CN1C[C@@H](c2ccc(C(F)(F)F)cc2)[C@H](C(=O)Nc2cc(C(C)(C)C)[nH]n2)C1=O` (racemic) [Compound 1545], the pest or weed control at 15.625 g/ha [1] was 0%, the pest or weed control at 62.5 g/ha [1] was 0% and the pest or weed control at 250 g/ha [1] was 0%. It also gave a pest or weed control at 15.625 g/ha [2] of 0%, a pest or weed control at 62.5 g/ha [2] of 0% and a pest or weed control at 250 g/ha [2] of 0%. The pest or weed control at 15.625 g/ha [3] was 0%, the pest or weed control at 62.5 g/ha [3] was 0% and the pest or weed control at 250 g/ha [3] was 0%. It also gave a plant injury at 15.625 g/ha (corn (Zea mays) [4]) of 0%, a plant injury at 62.5 g/ha (corn (Zea mays) [4]) of 0% and a plant injury at 250 g/ha (corn (Zea mays) [4]) of 0%. It also gave a pest or weed control at 15.625 g/ha [5] of 0%, a pest or weed control at 62.5 g/ha [5] of 0% and a pest or weed control at 250 g/ha [5] of 0%. For the same molecule, the pest or weed control at 15.625 g/ha [6] was 0%, the pest or weed control at 62.5 g/ha [6] was 0% and the pest or weed control at 250 g/ha [6] was 0%. The pest or weed control at 15.625 g/ha [7] was 0%, the pest or weed control at 62.5 g/ha [7] was 0% and the pest or weed control at 250 g/ha [7] was 0%. It also gave a pest or weed control at 15.625 g/ha [8] of 0%, a pest or weed control at 62.5 g/ha [8] of 0% and a pest or weed control at 250 g/ha [8] of 0%. For the same molecule, the pest or weed control at 62.5 g/ha [9] was 0%, the pest or weed control at 250 g/ha [9] was 0% and the plant injury at 15.625 g/ha (corn (Zea mays) [10]) was 0%. It also gave a plant injury at 62.5 g/ha (corn (Zea mays) [10]) of 0%, a plant injury at 250 g/ha (corn (Zea mays) [10]) of 0% and a pest or weed control at 15.625 g/ha [11] of 0%. For the same molecule, the pest or weed control at 62.5 g/ha [11] was 0%, the pest or weed control at 250 g/ha [11] was 0% and the pest or weed control at 15.625 g/ha [12] was 0%. The pest or weed control at 62.5 g/ha [12] was 0% and the pest or weed control at 250 g/ha [12] was 0%.
